Measured values as given in PubChem BioAssay AID206 (DTP/NCI, 2004).
“And” between values parts separate entries of the source, which are not always exact repeats. Equal entries are not always repeated. Inconclusive results are not listed.

Tested on: nude mice, HT29 intrarenal xenograft, tumor weight T/C
Test: NCI In Vivo Anticancer Drug Screen. Data for tumor model HT29;CX-1 Human Adenocarcinoma (MER+) (intrarenal inoculation) in NU/NU Swiss (nude) mice
Conditions: endpoint: mean tumor weight change, higher = larger tumour
Procedure, shortened: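 T/C = treated-group value ÷ vehicle-group value, using tumor size or survival.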

[1] = dose: 600.0 mg/kg/injection, schedule: Q04DX004 (sc), vehicle: Klucel (hydroxypropylcellulose) (HPC)
[2] = dose: 5.0 mg/kg/injection, schedule: Q01DX010 (sc), vehicle: saline
[3] = dose: 10.0 mg/kg/injection, schedule: Q01DX010 (sc), vehicle: saline
[4] = dose: 20.0 mg/kg/injection, schedule: Q01DX010 (sc), vehicle: saline

How did the T/C (dose: 100.0 mg/kg/injection, schedule: Q01DX010 (sc), vehicle: saline with Tween-80) turn out when `CC[C@H](CC[C@@H](C)C1CC[C@H]2[C@@H]3CC=C4C[C@@H](OP(=O)(N5CC5)N5CC5)CC[C@]4(C)[C@H]3CC[C@]12C)C(C)C` (some centres not stated) was run?
The T/C was 73 % of control.

What about the T/C (dose: 800.0 mg/kg/injection, schedule: Q01DX010 (sc), vehicle: saline with Tween-80) of the same compound?
Its T/C is 97 % of control.

Which T/C (dose: 150.0 mg/kg/injection, schedule: Q04DX004 (sc), vehicle: Klucel (hydroxypropylcellulose) (HPC)) does the source give for `Cc1ccc(C(=O)[O][Hg][CH2]C2COC([CH2][Hg][O]C(=O)c3ccc(C)cc3)CO2)cc1` (configuration not stated) here?
The T/C was 87 % of control.

What about the T/C (dose: 300.0 mg/kg/injection, schedule: Q04DX004 (sc), vehicle: Klucel (hydroxypropylcellulose) (HPC)) of the same compound?
The T/C was 51 % of control.

What about the T/C [1] of the same compound?
The T/C was 47 % of control.

And the T/C (dose: 1200.0 mg/kg/injection, schedule: Q04DX004 (sc), vehicle: Klucel (hydroxypropylcellulose) (HPC))?
Its T/C is 42 % of control.

How did the T/C (dose: 2.5 mg/kg/injection, schedule: Q01DX010 (sc), vehicle: saline) turn out when `CC(=O)C(O)N1C(=O)C=CC1=O` (configuration not stated) was run?
Its T/C is 123 % of control.

What about the T/C [2] of the same compound?
Its T/C is 107 % of control.

And the T/C [3]?
Its T/C is 52 % of control.

And the T/C [4]?
Its T/C is 30 % of control.

`C[C@]12CCC(=O)C=C1CC[C@@H]1[C@@H]2[C@@H](O)C[C@@]2(C)[C@H]1CC[C@]2(O)C(=O)CO` was tested. Which T/C [1] did it give?
Its T/C is 18 % of control and 26 % of control.

`CN(C)C1C(=O)C(C(=O)NP(=O)(NCCCO)N(CCCl)CCCl)=C(O)C2(O)C(=O)C3=C(O)c4c(O)cccc4C(C)(O)C3CC12` (configuration not stated) was tested. Which T/C (dose: 75.0 mg/kg/injection, schedule: Q04DX004 (sc), vehicle: saline with Tween-80) did it give?
Its T/C is 89 % of control.

And the T/C (dose: 300.0 mg/kg/injection, schedule: Q04DX004 (sc), vehicle: saline with Tween-80)?
The T/C was 7 % of control and 32 % of control.

What about the T/C (dose: 600.0 mg/kg/injection, schedule: Q04DX004 (sc), vehicle: saline with Tween-80) of the same compound?
The T/C was -99 % of control.

Which results are given for `CC1=C[S+](c2ccccc2)c2cccc3cc4ccccc4c1c23` (configuration not stated)?
T/C (dose: 8.0 mg/kg/injection, schedule: Q04DX004 (sc), vehicle: saline with Tween-80): 45 % of control; T/C (dose: 16.0 mg/kg/injection, schedule: Q04DX004 (sc), vehicle: saline with Tween-80): 66 % of control

For `CCNC(=O)[B-][N+](C)(C)C`, which T/C (dose: 100.0 mg/kg/injection, schedule: Q04DX004 (sc), vehicle: saline) is on record?
The T/C was 94 % of control.

What about the T/C (dose: 200.0 mg/kg/injection, schedule: Q04DX004 (sc), vehicle: saline) of the same compound?
The T/C was 60 % of control.

And the T/C (dose: 400.0 mg/kg/injection, schedule: Q04DX004 (sc), vehicle: saline)?
Its T/C is 43 % of control.

How did the T/C (dose: 3.13 mg/kg/injection, schedule: Q01DX010 (sc), vehicle: saline) turn out when `N=[N+]=CC(=O)OCC(N)C(=O)O` (configuration not stated) was run?
The T/C was 212 % of control.

And the T/C (dose: 6.25 mg/kg/injection, schedule: Q01DX010 (sc), vehicle: saline)?
Its T/C is 87 % of control.

And the T/C (dose: 12.5 mg/kg/injection, schedule: Q01DX010 (sc), vehicle: saline)?
The T/C was 85 % of control.

What about the T/C (dose: 25.0 mg/kg/injection, schedule: Q01DX010 (sc), vehicle: saline) of the same compound?
Its T/C is 123 % of control.

With `CCCCCCCCCCCCCCCC(=O)Nc1ccn(C2OC(CO)C(O)C2O)c(=O)n1` (configuration not stated) as the compound, how does the T/C (dose: 56.25 mg/kg/injection, schedule: Q04DX004 (sc), vehicle: water) read?
The T/C was 114 % of control.

With `CCCCOC(=O)/C=C(\Br)C(=O)OCCCC` as the compound, how does the T/C (dose: 250.0 mg/kg/injection, schedule: Q04DX004 (sc), vehicle: saline with Tween-80) read?
The T/C was 69 % of control.

And the T/C (dose: 500.0 mg/kg/injection, schedule: Q04DX004 (sc), vehicle: saline with Tween-80)?
The T/C was 43 % of control.

With `OCCN1CCN(CC/C=C2/c3ccccc3Sc3ccc(C(F)(F)F)cc32)CC1` as the compound, how does the T/C [2] read?
Its T/C is 80 % of control.

And the T/C [3]?
The T/C was 49 % of control.

And the T/C [4]?
Its T/C is 67 % of control.

What about the T/C (dose: 40.0 mg/kg/injection, schedule: Q01DX010 (sc), vehicle: saline) of the same compound?
The T/C was 42 % of control.

Which results are given for `C=CCc1cn(C2CC(O)C(CO)O2)c(=O)[nH]c1=O` (configuration not stated)?
T/C (dose: 300.0 mg/kg/injection, schedule: Q04DX004 (sc), vehicle: saline): 71 % of control; T/C (dose: 600.0 mg/kg/injection, schedule: Q04DX004 (sc), vehicle: saline): 99 % of control; T/C (dose: 1200.0 mg/kg/injection, schedule: Q04DX004 (sc), vehicle: saline): 64 % of control; T/C (dose: 2400.0 mg/kg/injection, schedule: Q04DX004 (sc), vehicle: saline): 71 % of control

How did the T/C (dose: 400.0 mg/kg/injection, schedule: Q04DX004 (sc), vehicle: saline with Tween-80) turn out when `Cc1ncc([N+](=O)[O-])n1CCSC(N)=O` was run?
Its T/C is 112 % of control.

What about the T/C (dose: 800.0 mg/kg/injection, schedule: Q04DX004 (sc), vehicle: saline with Tween-80) of the same compound?
Its T/C is 76 % of control.

And the T/C (dose: 1600.0 mg/kg/injection, schedule: Q04DX004 (sc), vehicle: saline with Tween-80)?
The T/C was 111 % of control.
